Common to all, as to type: biochemical
The subject of experiment [1] is FMN riboswitch (B. subtilis ribDEAHT operon). The experiment can be described thus: FMN riboswitch-mediated in vitro transcription termination assay, RiboGreen fluorescence detection. To be noted: FIG. 14; RNA binding fluorophore (RiboGreen) detection, 10 μM each rNTP, 3 mM Mg2+, 4-hour reaction.
Experiment [2] has the same test system. As to the kind of experiment: FMN riboswitch-mediated in vitro transcription termination assay, [α-33P]-ATP radiometric detection. As for the experimental part:
The FMN riboswitch within the leader sequence of the B. subtilis ribDEAHT operon was amplified by PCR from B. subtilis strain 168 (Bacillus Genetic Stock Center—designation 1A1). PCR of a B. subtilis genomic preparation is performed using Platinum® Taq DNA Polymerase High Fidelity from Invitrogen (catalog #11304-011) and the sense PCR and the antisense polyA PCR primers (SEQ ID: NO 1 and 2, or SEQ ID: NO 1 and 3, respectively, as shown in table below). […] These overhangs allow the ligation of DNA into the pCR®2.1-TOPO® vector using a TOPO TA Cloning® kit (Invitrogen catalog #K4500-01). Following transformation, colonies that contained disrupted β-galactosidase are picked and grown overnight. Correct insertion and orientation of PCR product are verified by restriction analysis and sequencing. PCR of the resulting clone is used to generate DNA sequences for use in in vitro transcription termination assays. […]
Synthetic DNA primers and a biotinylated oligo (dT) may be obtained from the Keck Foundation Biotechnology Resource Center at Yale University. […] 50 μl of Microscint™PS (PerkinElmer, catalog #6013631) are then added to wells and the plate is read in a TopCount®NXT™ microplate scintillation and luminescence counter (PerkinElmer). Other readers and counters may be also be used. […]

The subject of experiment [3] is TPP riboswitch (B. subtilis tenA operon). As to the kind of experiment: TPP riboswitch-mediated in vitro transcription termination assay, RiboGreen fluorescence detection. The note with it: FIG. 15; RNA binding fluorophore (RiboGreen) detection, 5 μM each rNTP, 2 mM Mg2+, 3-hour reaction.
Description: In vitro plate-based transcription assay: In vitro transcription reactions are carried out at 25° C. in a total reaction volume of 50 μL. Reactions are performed in Reacti-Bind™ Streptavidin High Binding Capacity Coated 96-Well Plates (Pierce, catalog #15502) in assay buffer at a final concentration of 20 mM HEPES at pH 8.0, 60 mM KCl, 0.1 mM EDTA, and 0.005% BSA. To prepare plates, wells are washed three times with successive addition and aspiration of wash buffer containing 25 mM Tris-HCl at pH 7.4 and 150 mM NaCl. Each well is then given assay buffer, followed by addition of FMN into control wells or DMSO into test wells. Enzyme mixture containing sigma-saturated E. coli polymerase (Epicentre Biotechnologies, catolog #S90250) was then added to all wells. The reaction was initiated by the addition of a start mix containing ribonucleotides (Promega, Catalog #P1300), biotinylated oligo (dT)25, magnesium, [α-^33P]-labeled ATP and DNA sequence. […] 50 μl of Microscint™PS (PerkinElmer, catalog #6013631) are then added to wells and the plate is read in a TopCount®NXT™ microplate scintillation and luminescence counter (PerkinElmer). […]
Experiment [4] addresses T1, E. coli RNA polymerase (Escherichia coli, UniProt P0A8V2).
T1 construct: purchased Epicentre Biotechnologies S90250
The experiment can be described thus: In vitro plate-based transcription assay, inhibition of RNA polymerase activity (radiometric). The note with it: FIG. 10; 12.5 μM each rNTP, 2.5 mM Mg2+, 0.1 Unit RNA polymerase; read-out: IC50 value for inhibition of the in vitro transcription reaction. How it is done:
Synthetic DNA primers and a biotinylated oligo (dT) may be obtained from the Keck Foundation Biotechnology Resource Center at Yale University. Flavin mononucleotide (FMN) may be purchased from Fluka BioChemika (catalog #83810). [α-^33P] labeled Adenosine 5′ triphosphate was acquired from American Radiolabeled Chemicals, Inc. (catalog #ARP0131). In vitro plate-based transcription assay: In vitro transcription reactions are carried out at 25° C. in a total reaction volume of 50 μL. […] 50 μl of Microscint™PS (PerkinElmer, catalog #6013631) are then added to wells and the plate is read in a TopCount®NXT™ microplate scintillation and luminescence counter (PerkinElmer). Other readers and counters may be also be used.
The antibacterial rifampin is an RNA polymerase inhibitor (Liu, J., Feldman, P. A., Lippy, J. S., Bobkova, K., Kurilla, M. G, and Chung, T. D. Y., 2001 Analytical Biochemistry, 289, 239-245, Fujii, K., Saito, H., Tomioka, H., Mae, and T., Hosoe, K., 1995 Antimicrobial Agents and Chemotherapy, 39, 1489-1492, Morris, A. B., Brown, R. B., and Sands, M., 1993 Antimicrobial Agents and Chemotherapy 37, 1-7). Rifampin is titrated to inhibit in vitro transcription reaction and its inhibitory IC50 value is determined (FIG. 10). […]

The structures appear in SMILES notation.

T1 sequence (P0A8V2 whole entry): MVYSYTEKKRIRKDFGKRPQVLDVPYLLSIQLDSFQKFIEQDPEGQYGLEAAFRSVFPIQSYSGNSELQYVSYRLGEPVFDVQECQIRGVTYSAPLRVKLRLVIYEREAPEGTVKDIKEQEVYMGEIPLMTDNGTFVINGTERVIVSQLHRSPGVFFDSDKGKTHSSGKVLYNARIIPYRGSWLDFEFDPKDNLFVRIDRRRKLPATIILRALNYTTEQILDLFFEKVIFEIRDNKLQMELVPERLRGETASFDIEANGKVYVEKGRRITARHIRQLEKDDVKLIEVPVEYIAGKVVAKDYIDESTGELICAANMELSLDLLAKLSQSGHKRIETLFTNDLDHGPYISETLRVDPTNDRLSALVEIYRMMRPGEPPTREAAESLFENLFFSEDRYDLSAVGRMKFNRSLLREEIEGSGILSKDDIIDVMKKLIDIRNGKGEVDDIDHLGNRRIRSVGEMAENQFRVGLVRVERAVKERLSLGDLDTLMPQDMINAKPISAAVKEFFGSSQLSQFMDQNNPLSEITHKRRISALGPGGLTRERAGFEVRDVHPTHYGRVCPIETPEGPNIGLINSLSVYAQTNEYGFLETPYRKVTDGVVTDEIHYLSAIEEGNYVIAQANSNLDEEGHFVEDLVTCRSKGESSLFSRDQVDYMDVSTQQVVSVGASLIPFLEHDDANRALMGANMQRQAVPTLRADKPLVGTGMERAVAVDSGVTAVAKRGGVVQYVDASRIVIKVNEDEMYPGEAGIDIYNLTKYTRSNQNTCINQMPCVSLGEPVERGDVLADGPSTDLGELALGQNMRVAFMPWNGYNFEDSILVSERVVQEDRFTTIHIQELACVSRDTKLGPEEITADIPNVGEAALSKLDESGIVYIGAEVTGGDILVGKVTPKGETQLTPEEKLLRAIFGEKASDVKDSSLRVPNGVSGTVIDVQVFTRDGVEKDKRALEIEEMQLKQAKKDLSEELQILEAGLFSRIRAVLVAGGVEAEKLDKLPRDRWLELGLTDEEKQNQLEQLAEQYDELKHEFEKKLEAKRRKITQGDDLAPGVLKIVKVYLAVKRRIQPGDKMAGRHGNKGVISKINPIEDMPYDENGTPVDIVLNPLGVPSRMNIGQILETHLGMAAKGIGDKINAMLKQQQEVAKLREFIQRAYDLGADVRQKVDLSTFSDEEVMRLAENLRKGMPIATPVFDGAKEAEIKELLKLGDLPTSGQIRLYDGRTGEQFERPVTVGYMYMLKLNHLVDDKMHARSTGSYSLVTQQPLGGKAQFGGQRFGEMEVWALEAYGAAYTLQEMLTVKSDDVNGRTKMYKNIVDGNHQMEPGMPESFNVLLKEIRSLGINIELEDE
T1 sequence (P0A8T7 whole entry partner): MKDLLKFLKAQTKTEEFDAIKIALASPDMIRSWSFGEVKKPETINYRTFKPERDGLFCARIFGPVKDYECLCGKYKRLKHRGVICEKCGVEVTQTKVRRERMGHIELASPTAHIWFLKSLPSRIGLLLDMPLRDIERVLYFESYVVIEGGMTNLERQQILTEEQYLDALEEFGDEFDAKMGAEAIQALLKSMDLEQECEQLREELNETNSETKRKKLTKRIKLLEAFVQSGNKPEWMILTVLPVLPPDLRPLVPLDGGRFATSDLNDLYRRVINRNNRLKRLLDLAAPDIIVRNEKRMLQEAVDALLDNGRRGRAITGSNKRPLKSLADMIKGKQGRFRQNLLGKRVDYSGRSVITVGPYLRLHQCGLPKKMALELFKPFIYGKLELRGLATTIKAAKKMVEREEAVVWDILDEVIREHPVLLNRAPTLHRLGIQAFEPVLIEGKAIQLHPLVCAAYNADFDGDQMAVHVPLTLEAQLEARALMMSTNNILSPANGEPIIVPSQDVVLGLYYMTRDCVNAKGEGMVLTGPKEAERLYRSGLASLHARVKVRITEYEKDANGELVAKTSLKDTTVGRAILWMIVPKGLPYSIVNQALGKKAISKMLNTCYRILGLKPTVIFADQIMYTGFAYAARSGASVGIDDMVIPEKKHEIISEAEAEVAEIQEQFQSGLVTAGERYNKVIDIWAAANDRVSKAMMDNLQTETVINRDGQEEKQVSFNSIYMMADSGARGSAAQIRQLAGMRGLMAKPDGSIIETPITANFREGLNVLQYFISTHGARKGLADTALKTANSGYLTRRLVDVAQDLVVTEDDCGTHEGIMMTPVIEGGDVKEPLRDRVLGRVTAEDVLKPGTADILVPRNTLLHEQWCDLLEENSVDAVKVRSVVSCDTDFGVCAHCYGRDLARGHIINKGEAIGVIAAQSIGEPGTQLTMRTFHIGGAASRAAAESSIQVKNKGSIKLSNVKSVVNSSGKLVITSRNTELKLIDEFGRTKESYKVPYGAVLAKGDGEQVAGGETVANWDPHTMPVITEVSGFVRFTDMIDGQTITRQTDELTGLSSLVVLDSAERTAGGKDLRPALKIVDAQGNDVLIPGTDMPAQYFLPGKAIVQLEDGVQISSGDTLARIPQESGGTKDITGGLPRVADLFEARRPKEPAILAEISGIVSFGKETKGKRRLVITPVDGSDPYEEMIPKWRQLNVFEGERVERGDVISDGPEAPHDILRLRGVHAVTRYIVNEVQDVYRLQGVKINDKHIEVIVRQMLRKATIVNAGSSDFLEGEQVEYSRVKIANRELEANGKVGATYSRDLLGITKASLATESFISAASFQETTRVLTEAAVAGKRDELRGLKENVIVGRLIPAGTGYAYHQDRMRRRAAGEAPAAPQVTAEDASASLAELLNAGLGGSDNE
T1 sequence (P0A7Z4 whole entry partner): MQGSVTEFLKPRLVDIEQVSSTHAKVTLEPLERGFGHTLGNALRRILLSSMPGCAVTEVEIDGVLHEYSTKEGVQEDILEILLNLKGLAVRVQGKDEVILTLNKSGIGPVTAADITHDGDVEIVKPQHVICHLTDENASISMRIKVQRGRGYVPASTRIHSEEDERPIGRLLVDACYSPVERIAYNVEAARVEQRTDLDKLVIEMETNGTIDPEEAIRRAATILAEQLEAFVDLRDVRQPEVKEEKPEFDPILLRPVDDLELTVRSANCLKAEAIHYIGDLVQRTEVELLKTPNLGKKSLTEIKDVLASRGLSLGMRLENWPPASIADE
T1 sequence (P0A800 2-91 partner limits assumed): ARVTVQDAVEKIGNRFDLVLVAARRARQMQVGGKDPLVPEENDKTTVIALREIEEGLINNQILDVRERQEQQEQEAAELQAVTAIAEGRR
T1 sequence (P00579 whole entry partner): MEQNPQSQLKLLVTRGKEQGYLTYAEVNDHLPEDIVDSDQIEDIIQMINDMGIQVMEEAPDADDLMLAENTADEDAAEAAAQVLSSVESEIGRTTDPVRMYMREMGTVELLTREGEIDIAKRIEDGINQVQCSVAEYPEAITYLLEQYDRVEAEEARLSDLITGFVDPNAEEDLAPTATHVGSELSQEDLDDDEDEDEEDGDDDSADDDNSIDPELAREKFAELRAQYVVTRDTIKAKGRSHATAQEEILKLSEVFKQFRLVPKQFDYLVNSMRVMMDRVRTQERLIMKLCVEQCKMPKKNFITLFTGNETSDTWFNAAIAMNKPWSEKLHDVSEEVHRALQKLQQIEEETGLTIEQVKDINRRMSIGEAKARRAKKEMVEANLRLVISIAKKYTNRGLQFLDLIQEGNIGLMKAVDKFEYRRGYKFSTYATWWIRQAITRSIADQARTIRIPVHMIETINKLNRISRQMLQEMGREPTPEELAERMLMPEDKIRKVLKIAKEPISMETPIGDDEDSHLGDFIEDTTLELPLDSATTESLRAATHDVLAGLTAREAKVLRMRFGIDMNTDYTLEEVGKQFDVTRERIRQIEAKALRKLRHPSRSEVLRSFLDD

Usually IC50 stands for the concentration at which inhibition is half-maximal. On to `Cc1cc2nc3c(=O)[nH]c(=O)nc-3n(C[C@H](O)[C@H](O)[C@H](O)COP(=O)(O)O)c2cc1C` [FMN, Flavin mononucleotide], for which the half-maximal inhibitory concentration (IC50) in experiment [1] was 116 nM; in experiment [2] (FIG. 11, 12.5 μM each rNTP, 2.5 mM Mg2+, 0.1 Unit RNA polymerase, radiolabel detection) it was 45 nM. Also, the “Signal (cpm) of captured polyA full-length transcript” value in experiment [2] (FIG. 5A, 100 μM FMN versus no FMN, DNA sequence encoding a polyA sequence) is “significant decrease in signal”. The compound `Cc1ncc(C[n+]2csc(CCOP(=O)(O)O)c2C)c(N)n1` [TMP, Thiamine monophosphate] registered an IC50 in experiment [3] of over 25000 nM.

For the compound `Cc1ncc(C[n+]2csc(CCO[P@](=O)(O)OP(=O)(O)O)c2C)c(N)n1` [TPP, Thiamine pyrophosphate], the IC50 in experiment [3] was found to be 170 nM. Take `CO[C@H]1/C=C/O[C@@]2(C)Oc3c(C)c(O)c4c(O)c(c(/C=N/N5CCN(C)CC5)c(O)c4c3C2=O)NC(=O)/C(C)=C\C=C\[C@H](C)[C@H](O)[C@@H](C)[C@@H](O)[C@@H](C)[C@H](OC(C)=O)[C@@H]1C` [rifampin]: the IC50 in experiment [4] was 8.2 nM. In turn, `Cc1cc2nc3c(=O)[nH]c(=O)nc-3n(C[C@H](O)[C@H](O)[C@H](O)CO)c2cc1N(C)C` [roseoflavine, roseoflavin] displayed an IC50 in experiment [1] of over 100000 nM.

The values are drawn from patent US20120135417A1, “METHODS FOR SCREENING AND IDENTIFYING COMPOUNDS” (priority 2009, published 2012).
